According to ChEMBL document CHEMBL3779822, “Indolyl-3-ethanone-α-thioethers: A promising new class of non-toxic antimalarial agents” (Eur J Med Chem, 2016):

Key:
[1] = test system: HeLa; test: Growth inhibition of human HeLa cells after 48 hrs by resazurin assay; assay type: cell-based
[2] = test system: Plasmodium falciparum; test: Antiplasmodial activity against Plasmodium falciparum 3D7 infected in human erythrocytes assessed as inhibition of parasite growth after 48 hrs by parasite lactate dehydrogenase assay; assay type: functional, organism-based; conditions: 3D7, 48 h
[3] = Selectivity index, ratio if IC50 for human HeLa cells to IC50 for Plasmodium falciparum 3D7; assay type: functional

Compound	IC50 [1] [µM]	IC50 [2] [µM]	Ratio IC50 [3]
O=C(COc1ccccc1)c1c[nH]c2ccccc12	> 500	> 500	
O=C(CSc1ccc(Br)cc1)c1c[nH]c2ccc(Cl)cc12	> 500	0.09	5556
CC(SCC(=O)c1c[nH]c2ccccc12)c1ccccc1 (stereo not drawn)	76	122	1
CC(C)(C)c1ccc(SCC(=O)c2c[nH]c3ccccc23)cc1	> 500	8.9	56
O=C(CSCc1ccc(Br)cc1)c1c[nH]c2ccccc12	> 500	> 500	
O=C(CSc1ccc(Br)cc1)c1c[nH]c2c(F)cccc12	> 500	2.4	208
O=C(CNc1ccccc1)c1c[nH]c2ccccc12	> 500	73	7
O=C(CSCc1ccc(F)cc1)c1c[nH]c2ccccc12	> 500	58	9
O=C(CSCc1cccc(Br)c1)c1c[nH]c2ccccc12	35	13	3
O=C(CSc1ccccc1Cl)c1c[nH]c2ccccc12	> 500	> 500	
O=C(CSc1ccc(Br)cc1)c1c[nH]c2c(I)cccc12	56	45	1
O=C(CSCc1ccc(Cl)cc1)c1c[nH]c2ccccc12	> 500	> 500	
O=C(CSc1ccc(Br)cc1)c1c[nH]c2ccccc12	> 500	1.3	385
O=C(CSc1ccc(Br)cc1)c1c[nH]c2cc(F)ccc12	> 500	1.3	385
Cn1cc(C(=O)CSc2ccc(Br)cc2)c2ccccc21	> 500	15	33
CN(C)c1ccc(SCC(=O)c2c[nH]c3ccccc23)cc1	60	105	1
Cc1ccc(SCC(=O)c2c[nH]c3ccccc23)cc1	> 500	19	26
O=C(CSCCc1ccccc1)c1c[nH]c2ccccc12	14	7.8	2
O=C(CSc1ccc(Br)cc1)c1c[nH]c2ccc(Br)cc12	> 500	0.12	4167

Compound	IC50 [1] [µM]	IC50 [2] [µM]	Ratio IC50 [3]
O=C(CSc1ccc([N+](=O)[O-])cc1)c1c[nH]c2ccccc12	> 500	0.24	2083
O=C(COc1ccc(Cl)cc1)c1c[nH]c2ccccc12	> 500	1.8	278
O=C(CSc1ccc(Br)cc1)c1c[nH]c2cc(Br)c(F)cc12	> 500	19	26
O=C(CSc1ccccc1)c1c[nH]c2ccccc12	284	29	10
O=C(CSc1ccc(Br)cc1)c1c[nH]c2cc(Br)ccc12	> 500	279	2
O=C(CSc1cccc(Cl)c1)c1c[nH]c2ccccc12	> 500	44	11
O=C(CSCc1ccccc1)c1c[nH]c2ccccc12	> 500	131	4
Cc1cc(Br)c2[nH]cc(C(=O)CSc3ccc(Br)cc3)c2c1	224	1.8	124
O=C(CSc1ccc(Br)cc1)c1c[nH]c2cc(Cl)ccc12	> 500	2.8	179
O=C(CSc1ccc(Br)cc1)c1c[nH]c2cc(Cl)c(F)cc12	> 500	12	42
Nc1ccc(SCC(=O)c2c[nH]c3ccccc23)cc1	36	20	2
O=C(CSc1ccc(Br)cc1)c1cn(Cc2ccccc2)c2ccccc12	> 500	2.7	185
O=C(CSc1ccc(F)cc1)c1c[nH]c2ccccc12	> 500	1.7	294
O=C(CSc1ccc(Cl)cc1)c1c[nH]c2ccccc12	> 500	1.4	357
O=C(CNc1ccc(Cl)cc1)c1c[nH]c2ccccc12	16	29	0.6
Cc1ccccc1SCC(=O)c1c[nH]c2ccccc12	> 500	12	42
O=C(CSc1cccc(Br)c1)c1c[nH]c2ccccc12	> 500	106	5
O=C(CSc1cccc(F)c1)c1c[nH]c2ccccc12	> 500	3.9	128
CC[C@H]1CN2CCc3cc(OC)c(OC)cc3[C@@H]2C[C@@H]1C[C@H]1NCCc2cc(OC)c(OC)cc21 [EMETINE]	0.37		
